According to ChEMBL document CHEMBL1141006, “2-Arylimino-5,6-dihydro-4H-1,3-thiazines as a new class of cannabinoid receptor agonists. Part 3: Synthesis and activity of isosteric analogs” (Bioorg Med Chem Lett, 2008):

Key:
Cannabinoid receptor 1 [1] = biological target: T1, Cannabinoid receptor 1 (Homo sapiens, UniProt P21554); assay: Binding affinity to human CB1 receptor
Cannabinoid receptor 2 = Cannabinoid receptor 2 (Homo sapiens, UniProt P34972); assay: Binding affinity to human CB2 receptor
Mus musculus [2] = assay: Analgesic activity against po dosed ddY mouse assessed as time spent motionless on the ring for 5 mins by ring catalepsy test; assay type: functional
Mus musculus [3] = assay: Analgesic activity against formalin-induced acute pain in po dosed ICR mouse assessed as paw licking for 0 to 5 mins; assay type: functional
Cannabinoid receptor 1 [4] = biological target: Cannabinoid receptor 1 (Mus musculus, UniProt P47746); assay: Binding affinity to mouse CB1 receptor
Cannabinoid receptor 1 [5] = biological target: T1, Cannabinoid receptor 1; assay: Binding affinity to human CB1 receptor expressed in CHO cells assessed as inhibition of cAMP accumulation; assay type: functional, cell-based
[6] = Half life in rat at 2 mg/kg, iv and 3 mg/kg, po; assay type: ADME, organism-based; settings: in vivo
[7] = Total clearance in rat at 2 mg/kg, iv and 3 mg/kg, po; assay type: ADME, organism-based; settings: in vivo
[8] = Cmax in rat at 2 mg/kg, iv and 3 mg/kg, po; assay type: ADME, organism-based; settings: in vivo
[9] = AUC in rat at 3 mg/kg, po; assay type: ADME, organism-based; parameters: dose 3 mg/kg, route oral; settings: plasma
[10] = Oral bioavailability in rat at 3 mg/kg; assay type: ADME, organism-based; settings: in vivo
Mus musculus [11] = assay: Analgesic activity against formalin-induced inflammatory pain in po dosed ICR mouse assessed as paw licking for 10 to 30 mins; assay type: functional
Mus musculus [12] = species: Mus musculus; assay: Ratio of ED50 for analgesic activity in ddY mouse by ring-catalepsy test to ED50 for analgesic activity against formalin-induced inflammatory pain in ICR mouse; assay type: functional

T1 sequence (P21554 whole entry): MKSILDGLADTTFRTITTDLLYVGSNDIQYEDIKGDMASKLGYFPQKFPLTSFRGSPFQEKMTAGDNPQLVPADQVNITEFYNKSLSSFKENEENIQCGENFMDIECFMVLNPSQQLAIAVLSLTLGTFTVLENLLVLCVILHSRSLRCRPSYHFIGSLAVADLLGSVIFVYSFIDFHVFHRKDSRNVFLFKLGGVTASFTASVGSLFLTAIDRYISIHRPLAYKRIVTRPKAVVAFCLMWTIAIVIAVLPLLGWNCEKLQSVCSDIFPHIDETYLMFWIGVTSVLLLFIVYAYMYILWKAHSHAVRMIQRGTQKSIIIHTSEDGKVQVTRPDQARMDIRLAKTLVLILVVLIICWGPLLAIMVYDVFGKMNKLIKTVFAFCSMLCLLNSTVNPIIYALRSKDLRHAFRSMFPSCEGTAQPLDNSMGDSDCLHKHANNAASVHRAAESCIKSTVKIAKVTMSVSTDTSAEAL
Cannabinoid receptor 2, sequence (P34972 whole entry): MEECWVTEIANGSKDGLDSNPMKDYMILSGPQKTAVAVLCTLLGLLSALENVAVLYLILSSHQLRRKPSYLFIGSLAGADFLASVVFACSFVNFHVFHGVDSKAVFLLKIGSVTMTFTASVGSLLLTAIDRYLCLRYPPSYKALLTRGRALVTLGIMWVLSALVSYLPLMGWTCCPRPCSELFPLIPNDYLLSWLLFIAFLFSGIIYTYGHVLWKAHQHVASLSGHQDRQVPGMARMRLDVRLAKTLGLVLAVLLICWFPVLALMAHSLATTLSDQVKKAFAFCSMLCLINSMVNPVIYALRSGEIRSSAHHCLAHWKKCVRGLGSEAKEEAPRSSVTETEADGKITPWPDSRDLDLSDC
Cannabinoid receptor 1 (Mus musculus, UniProt P47746), sequence (P47746 whole entry): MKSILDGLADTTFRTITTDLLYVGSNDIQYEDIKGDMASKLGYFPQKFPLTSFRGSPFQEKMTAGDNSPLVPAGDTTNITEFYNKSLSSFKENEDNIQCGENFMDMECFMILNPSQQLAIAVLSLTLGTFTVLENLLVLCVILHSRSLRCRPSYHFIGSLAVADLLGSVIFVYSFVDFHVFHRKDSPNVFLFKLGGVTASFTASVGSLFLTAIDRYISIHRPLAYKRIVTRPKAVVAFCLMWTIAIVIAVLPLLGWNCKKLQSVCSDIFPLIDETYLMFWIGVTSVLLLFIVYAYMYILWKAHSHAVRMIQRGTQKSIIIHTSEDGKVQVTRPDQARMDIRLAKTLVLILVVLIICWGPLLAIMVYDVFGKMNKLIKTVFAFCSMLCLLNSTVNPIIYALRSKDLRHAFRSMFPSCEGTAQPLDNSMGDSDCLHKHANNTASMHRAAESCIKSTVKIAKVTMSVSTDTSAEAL

SMILES	Ki (Cannabinoid receptor 1 [1])	Ki (Cannabinoid receptor 2)	other results
CSC(=S)N1CC2(CCCCC2)CO/C1=N\c1cccc2c1CCCC2	14 nM	1 nM	
CSC(=O)N1CC2(CCCCC2)CN/C1=N\c1cccc2ccccc12	624 nM	155 nM	
CSC(=S)N1CC2(CCCCC2)CO/C1=N\c1ccc(Cl)c2c1CCCC2	76 nM	5.8 nM	
CSC(=S)N1CC2(CCCCC2)CO/C1=N\c1cccc2nonc12	152 nM	6.8 nM	
CSC(=S)N1CC2(CCCCC2)CO/C1=N\c1cccc2ccccc12	9.3 nM	0.9 nM	
CSC(=S)N1CC2(CCCCC2)CO/C1=N\c1cc(C(C)(C)C)on1	17 nM	4.7 nM	
CCC(CC)(CC)c1cc(/N=C2\OCC3(CCCCC3)CN2C(=S)SC)on1	1 nM	1 nM	
CSC(=S)N1CC2(CCCCC2)CO/C1=N\c1ccccc1	515 nM	11 nM	
CSC(=S)N1CC2(CCCCC2)CO/C1=N\c1ccc([N+](=O)[O-])c2ccccc12	14 nM	2.4 nM	
CSC(=S)N1CC2(CCCCC2)CO/C1=N\c1ccc(Cl)c2ccccc12	3.4 nM	0.9 nM	ED50 (Mus musculus [2]): 25.6 mg/kg; ED50 (Mus musculus [3]): 1.9 mg/kg; Ki (Cannabinoid receptor 1 [4]): 0.7 nM; IC50 (Cannabinoid receptor 1 [5]): 8 nM; half-life [6]: 2.2 h; clearance [7]: 14.7 mL/min/kg; Cmax [8]: 280 ng/mL; AUC [9]: 1210 ng·h/mL; bioavailability [10]: 35%; ED50 (Mus musculus [11]): 0.64 mg/kg; Ratio ED50 (Mus musculus [12]): 40
COc1ccccc1/N=C1\OCC2(CCCCC2)CN1C(=S)SC	59 nM	0.9 nM	
CSC(=S)N1CC2(CCCCC2)CO/C1=N\c1nc(C(C)(C)C)cs1	1 nM	1 nM	
CSC(=S)N1CC2(CCCCC2)CS/C1=N\c1cccc2ccccc12			ED50 (Mus musculus [2]): 19.2 mg/kg; ED50 (Mus musculus [3]): 1.5 mg/kg; IC50 (Cannabinoid receptor 1 [5]): 10 nM; Cmax [8]: 160 ng/mL; AUC [9]: 1390 ng·h/mL; bioavailability [10]: 80%; ED50 (Mus musculus [11]): 1 mg/kg; Ratio ED50 (Mus musculus [12]): 19.2
CSC(=O)N1CC2(CCCCC2)CO/C1=N\c1cccc2ccccc12	31 nM	5.8 nM	
CSC(=S)N1CC2(CCCCC2)CO/C1=N\c1ccc(C#N)c2ccccc12	9.2 nM	1.8 nM	
CSC(=O)N1CC2(CCCCC2)CS/C1=N\c1cccc2ccccc12	49 nM	1.5 nM	
CSC(=S)N1CC2(CCCCC2)CO/C1=N\c1cc(C(C)(C)C)no1	0.9 nM	1 nM	
CSC(=S)N1CC2(CCCCC2)CO/C1=N\c1ccc(N(C)C)c2ccccc12	4.9 nM	6.6 nM	
CSC(=S)N1CC2(CCCCC2)CO/C1=N\c1ccc(C#N)c2c1CCCC2	101 nM	1.9 nM	
CSC(=S)N1CC2(CCCCC2)CO/C1=N\c1ccc(F)c2ccccc12	4.9 nM	0.8 nM	
